Results from patent US10112939B2, “Tied-back benzamide derivatives as potent rock inhibitors” (Bristol-Myers Squibb Company, priority 2014, dated 2018).

Target: ROCK2 (Homo sapiens (Human), UniProt O75116)
Test: ROCK assay (peptide substrate phosphorylation, LABCHIP 3000 Reader)
Type: biochemical
Details: 5 μM ATP, 1.5 μM peptide substrate
Experimental: Compounds were dissolved in DMSO so that the final concentration of DMSO was <2%, and the reaction was initiated with Rho kinase variants. After incubation, the reaction was terminated by the addition of EDTA and the phosphorylated and non-phosphorylated peptides separated using a LABCHIP® 3000 Reader (Caliper Life Sciences). […] Compounds were tested in dose-response format, and the inhibition of kinase activity was calculated at each concentration of compound.

Chain of ROCK2 (O75116 whole entry, species assumed): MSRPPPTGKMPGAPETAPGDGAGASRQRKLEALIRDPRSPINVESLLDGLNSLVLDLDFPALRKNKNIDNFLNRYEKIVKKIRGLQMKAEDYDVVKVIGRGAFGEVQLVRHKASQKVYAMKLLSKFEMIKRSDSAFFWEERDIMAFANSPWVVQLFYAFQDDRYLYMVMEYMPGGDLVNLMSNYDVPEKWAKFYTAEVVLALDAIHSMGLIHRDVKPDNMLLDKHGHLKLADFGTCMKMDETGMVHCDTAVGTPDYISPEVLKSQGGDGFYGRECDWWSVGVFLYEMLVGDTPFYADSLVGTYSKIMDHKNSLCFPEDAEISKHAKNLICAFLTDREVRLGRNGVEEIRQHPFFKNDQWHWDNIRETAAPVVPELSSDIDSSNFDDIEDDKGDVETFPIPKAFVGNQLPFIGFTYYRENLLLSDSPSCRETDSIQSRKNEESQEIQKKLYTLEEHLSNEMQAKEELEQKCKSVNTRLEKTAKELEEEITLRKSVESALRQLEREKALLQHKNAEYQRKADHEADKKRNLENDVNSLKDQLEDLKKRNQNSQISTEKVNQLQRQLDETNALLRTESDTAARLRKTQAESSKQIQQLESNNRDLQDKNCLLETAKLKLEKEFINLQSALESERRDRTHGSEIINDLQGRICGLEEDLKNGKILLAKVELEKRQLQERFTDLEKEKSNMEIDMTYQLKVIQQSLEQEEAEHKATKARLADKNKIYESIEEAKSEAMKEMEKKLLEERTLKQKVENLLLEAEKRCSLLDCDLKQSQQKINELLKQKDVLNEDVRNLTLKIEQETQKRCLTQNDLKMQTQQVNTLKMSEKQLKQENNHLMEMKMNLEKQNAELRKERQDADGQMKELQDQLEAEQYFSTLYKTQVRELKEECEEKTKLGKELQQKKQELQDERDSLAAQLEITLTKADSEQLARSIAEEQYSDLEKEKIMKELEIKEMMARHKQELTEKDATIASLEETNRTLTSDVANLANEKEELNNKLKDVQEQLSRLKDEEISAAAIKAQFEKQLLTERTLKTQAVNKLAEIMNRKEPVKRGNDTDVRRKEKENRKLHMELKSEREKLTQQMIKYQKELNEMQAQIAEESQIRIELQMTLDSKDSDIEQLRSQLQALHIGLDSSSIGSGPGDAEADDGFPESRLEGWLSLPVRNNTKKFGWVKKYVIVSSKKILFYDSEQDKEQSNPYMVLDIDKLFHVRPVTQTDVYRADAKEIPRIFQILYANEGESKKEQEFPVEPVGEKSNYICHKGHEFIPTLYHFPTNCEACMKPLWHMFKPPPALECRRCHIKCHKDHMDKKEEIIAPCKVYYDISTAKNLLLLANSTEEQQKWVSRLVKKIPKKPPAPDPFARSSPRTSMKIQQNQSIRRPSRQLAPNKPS

Row | SMILES | IC50 [nM]
1 | CCN1CCC[C@H]1CNC(=O)c1cccc([C@H]2CC(O)CN2C(=O)c2ccc(-c3cn[nH]c3)c(OC)c2)c1 (stereo partly drawn) [Example 49, N-{[(2S)-1-ethylpyrrolidin-2-yl]methyl}-3-[(2R)-4-hydroxy-1-[3-methoxy-4-(1H-pyrazol-4-yl)benzoyl]pyrrolidin-2-yl]benzamide] | 43.4
2 | COc1cc(C(=O)N2CC(O)C[C@@H]2c2cccc(C(=O)NCC3CC3)c2)ccc1-c1cn[nH]c1 (stereo partly drawn) [Example 51, N-(cyclopropylmethyl)-3-[(2R)-4-hydroxy-1-[3-methoxy-4-(1H-pyrazol-4-yl)benzoyl]pyrrolidin-2-yl]benzamide] | 2.71
3 | COc1cc(C(=O)N2CC(O)C[C@@H]2c2cccc(C(=O)NC3CCC3)c2)ccc1-c1cn[nH]c1 (stereo partly drawn) [Example 54, N-cyclobutyl-3-[(2R)-4-hydroxy-1-[3-methoxy-4-(1H-pyrazol-4-yl)benzoyl]pyrrolidin-2-yl]benzamide] | 5.09
4 | COc1cc(C(=O)N2CC(O)C[C@@H]2c2cccc(C(=O)NCc3ncco3)c2)ccc1-c1cn[nH]c1 (stereo partly drawn) [Example 55, 3-[(2R)-4-hydroxy-1-[3-methoxy-4-(1H-pyrazol-4-yl)benzoyl]pyrrolidin-2-yl]-N-(1,3-oxazol-2-ylmethyl)benzamide] | 2.5
5 | COc1cc(C(=O)N2CC(O)C[C@@H]2c2cccc(C(=O)NC3CCOCC3)c2)ccc1-c1cn[nH]c1 (stereo partly drawn) [Example 56, 3-[(2R)-4-hydroxy-1-[3-methoxy-4-(1H-pyrazol-4-yl)benzoyl]pyrrolidin-2-yl]-N-(oxan-4-yl)benzamide] | 7.17
6 | COc1cc(C(=O)N2CC(O)C[C@@H]2c2cccc(C(=O)NCc3cc(C)no3)c2)ccc1-c1cn[nH]c1 (stereo partly drawn) [Example 58, 3-[(2R)-4-hydroxy-1-[3-methoxy-4-(1H-pyrazol-4-yl)benzoyl]pyrrolidin-2-yl]-N-[(3-methyl-1,2-oxazol-5-yl)methyl] benzamide] | 5.32
7 | COc1cc(C(=O)N2CC(O)C[C@@H]2c2cccc(C(=O)NCc3cc(C)on3)c2)ccc1-c1cn[nH]c1 (stereo partly drawn) [Example 59, 3-[(2R)-4-hydroxy-1-[3-methoxy-4-(1H-pyrazol-4-yl)benzoyl]pyrrolidin-2-yl]-N-[(5-methyl-1,2-oxazol-3-yl)methyl] benzamide] | 1.8
8 | COc1cc(C(=O)N2CC(O)C[C@@H]2c2cccc(C(=O)N3CC(C#N)C3)c2)ccc1-c1cn[nH]c1 (stereo partly drawn) [Example 61, 1-{3-[(2R)-4-hydroxy-1-[3-methoxy-4-(1H-pyrazol-4-yl)benzoyl]pyrrolidin-2-yl]benzoyl} azetidin-3-carbonitrile] | 102

Now from value to compound:

Row | IC50 [nM] | SMILES
9 | 5.32 | COc1cc(C(=O)N2CC(O)C[C@@H]2c2cccc(C(=O)NC3CC3)c2)ccc1-c1cn[nH]c1 (stereo partly drawn) [Example 48, N-cyclopropyl-3-[(2R)-4-hydroxy-1-[3-methoxy-4-(1H-pyrazol-4-yl)benzoyl]pyrrolidin-2-yl]benzamide]
10 | 5.1 | COCCNC(=O)c1cccc([C@H]2CC(O)CN2C(=O)c2ccc(-c3cn[nH]c3)c(OC)c2)c1 (stereo partly drawn) [Example 50, 3-[(2R)-4-hydroxy-1-[3-methoxy-4-(1H-pyrazol-4-yl)benzoyl]pyrrolidin-2-yl]-N-(2-methoxyethyl) benzamide]
11 | 6.68 | COc1cc(C(=O)N2CC(O)C[C@@H]2c2cccc(C(=O)NC(C)C)c2)ccc1-c1cn[nH]c1 (stereo partly drawn) [Example 52, 3-[(2R)-4-hydroxy-1-[3-methoxy-4-(1H-pyrazol-4-yl)benzoyl]pyrrolidin-2-yl]-N-(propan-2-yl)benzamide]
12 | 43.4 | COc1cc(C(=O)N2CC(O)C[C@@H]2c2cccc(C(=O)NC3(C)CC3)c2)ccc1-c1cn[nH]c1 (stereo partly drawn) [Example 57, 3-[(2R)-4-hydroxy-1-[3-methoxy-4-(1H-pyrazol-4-yl)benzoyl]pyrrolidin-2-yl]-N-(1-methylcyclopropyl) benzamide]
13 | 4.08 | COc1cc(C(=O)N2CC(O)C[C@@H]2c2cccc(C(=O)NCC(F)F)c2)ccc1-c1cn[nH]c1 (stereo partly drawn) [Example 60, N-(2,2-difluoroethyl)-3-[(2R)-4-hydroxy-1-[3-methoxy-4-(1H-pyrazol-4-yl)benzoyl]pyrrolidin-2-yl]benzamide]
